Source: ChEMBL document CHEMBL1201862, “PubChem BioAssay data set” (2004)
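48-hour exposure; five concentrations; linearly interpolated endpoints. The concentration for 50% growth inhibition is given as GI50.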 Activity calls are given as the source filed them. Cut-off read from the data, not from the text of the source: active = GI50 up to about 1.1 µM and inactive = higher.

Tests used:
Test in all cases: growth of human tumour cells (NCI), 48 h
[1] = system: A498
[2] = system: CAKI-1
[3] = system: HCC 2998
[4] = system: HCT-116
[5] = system: HOP-92
[6] = system: HT-29
[7] = system: MOLT-4
[8] = system: Malme-3M
[9] = system: NCI-H23
[10] = system: OVCAR-5
[11] = system: OVCAR-8
[12] = system: RPMI-8226
[13] = system: RXF 393
[14] = system: SF-295
[15] = system: SK-MEL-5
[16] = system: SNB-75
[17] = system: SR
[18] = system: SW-620
[19] = system: MDA-MB-231

SMILES | GI50 [1] | GI50 [2] | GI50 [3] | GI50 [4] | GI50 [5] | GI50 [6] | GI50 [7] | GI50 [8] | GI50 [9] | GI50 [10] | GI50 [11] | GI50 [12] | GI50 [13] | GI50 [14] | GI50 [15] | GI50 [16] | GI50 [17] | GI50 [18] | GI50 [19]
CC(=O)Oc1ccc2c(c1)C(=O)c1nc(C)c(C)nc1C2=O | > 63.4 µM (inactive) | > 76.6 µM (inactive) | 21.4 µM (inactive) | 43.7 µM (inactive) | > 87.1 µM (inactive) | 31.8 µM (inactive) | 41.8 µM (inactive) | 19.5 µM (inactive) | 43.4 µM (inactive) | > 100 µM (inactive) | 45.1 µM (inactive) | 39.8 µM (inactive) | 31.8 µM (inactive) | 49.9 µM (inactive) | 16.2 µM (inactive) | 80.4 µM (inactive) | 29.6 µM (inactive) | 46.5 µM (inactive) | –
O=C1CCC[C@@H]2NC[C@@H](c3ccc4c(c3)OCO4)[C@H]12 | > 25 µM (inactive) | > 25 µM (inactive) | > 25 µM (inactive) | > 25 µM (inactive) | > 25 µM (inactive) | > 25 µM (inactive) | > 25 µM (inactive) | > 25 µM (inactive) | > 25 µM (inactive) | > 25 µM (inactive) | > 25 µM (inactive) | > 25 µM (inactive) | > 25 µM (inactive) | > 25 µM (inactive) | > 25 µM (inactive) | > 25 µM (inactive) | > 25 µM (inactive) | – | > 25 µM (inactive)
Cc1ccc(N2C(=O)/C(=C/c3ccc(N(CCC#N)CCC#N)cc3C)N=C2c2cc([N+](=O)[O-])ccc2Cl)cc1 | > 100 µM (inactive) | 56 µM (inactive) | > 100 µM (inactive) | > 100 µM (inactive) | > 100 µM (inactive) | > 100 µM (inactive) | 91.2 µM (inactive) | > 100 µM (inactive) | > 100 µM (inactive) | > 100 µM (inactive) | > 100 µM (inactive) | > 100 µM (inactive) | – | > 100 µM (inactive) | > 100 µM (inactive) | > 100 µM (inactive) | 58.2 µM (inactive) | > 100 µM (inactive) | –
S=C1CNC(=S)CN1 | > 100 µM (inactive) | > 100 µM (inactive) | > 100 µM (inactive) | > 100 µM (inactive) | > 100 µM (inactive) | > 100 µM (inactive) | > 100 µM (inactive) | > 100 µM (inactive) | – | > 100 µM (inactive) | > 100 µM (inactive) | > 100 µM (inactive) | > 100 µM (inactive) | > 100 µM (inactive) | > 100 µM (inactive) | > 100 µM (inactive) | > 100 µM (inactive) | > 100 µM (inactive) | –
N=C(N)SCc1ccc2c(c1)S(=O)(=O)c1ccccc1O2 | 17.5 µM (inactive) | 21.3 µM (inactive) | 22.1 µM (inactive) | 22 µM (inactive) | 15.7 µM (inactive) | 15.6 µM (inactive) | 19.1 µM (inactive) | – | 19.1 µM (inactive) | 22 µM (inactive) | 30.1 µM (inactive) | 37.7 µM (inactive) | 21.2 µM (inactive) | 21.2 µM (inactive) | – | 14.6 µM (inactive) | 23 µM (inactive) | 17.8 µM (inactive) | 39.8 µM (inactive)
CS(=O)(=O)OCCN(CCOS(C)(=O)=O)c1ccc(/C=N/c2ccc(-c3csc(Cc4ccccc4)n3)cc2)c(Cl)c1 | 0.102 µM (active) | 1.23 µM (inactive) | 10.9 µM (inactive) | 19.5 µM (inactive) | 0.596 µM (active) | 21.9 µM (inactive) | 17.2 µM (inactive) | 37.1 µM (inactive) | 23.5 µM (inactive) | 5.01 µM (inactive) | 27.4 µM (inactive) | 23.8 µM (inactive) | 33.7 µM (inactive) | 30.2 µM (inactive) | 16.4 µM (inactive) | 15.5 µM (inactive) | 23.7 µM (inactive) | 31.8 µM (inactive) | 25 µM (inactive)
